Experimental data: patent publication US20060089390A1, “3-benzoyl-2,4,5-substituted pyridine derivatives or salts thereof and bactericides containing the same” (Ishihara Sangyo Kaisha, Ltd., priority 2002, published 2006)
Like-named read-outs stand apart in the source and are kept apart here.

How the values were obtained:
cucumber powdery mildew [1] = test: Test on preventive effect against cucumber powdery mildew; type: in vivo, Cucumber (cultivar: Suyo); settings: Cucumis sativus, foliar spray before inoculation, examined 6 to 11 days after inoculation, read-out: controlling effects as compared with non-treated cases (area of sporogony)
Protocol: Test on Preventive Effect Against Cucumber Powdery Mildew Cucumber (cultivar: […] After the drug solution dried, the cucumber was sprayed and inoculated with a conidiospore suspension of fungi of powdery mildew, and the cucumber was kept in a thermostatic chamber at 20° C. From 6 to 11 days after the inoculation, the area of sporogony was examined.

wheat powdery mildew = test: Test on preventive effect against wheat powdery mildew; type: in vivo, Wheat (cultivar: Norin-61-go); settings: Triticum aestivum, foliar spray before inoculation, examined 6 to 8 days after inoculation, read-out: controlling effects as compared with non-treated cases (area of sporogony)
Protocol: Tests on Preventive Effect Against Wheat Powdery Mildew Wheat (cultivar: […] After the drug solution dried, the wheat was inoculated by spreading with conidiospore of fungi of powdery mildew, and the wheat was kept in a thermostatic chamber at 20° C. From 6 to 8 days after the inoculation, the area of sporogony was examined.

cucumber powdery mildew [2] = test: Test on rainfastness of effect against cucumber powdery mildew; type: in vivo, Cucumber (cultivar: Suyo); settings: Cucumis sativus, topical, 500 gai/ha
Protocol: Cucumber (cultivar: […] A day after the treatment, 10 mm/hr of artificial rainfall was applied for 1 hour. Together with seedlings not subjected to rainfall treatment (preventive), the cucumber was sprayed and inoculated with a conidiospore suspension of fungi of powdery mildew, and the cucumber was kept in a thermostatic chamber at 20° C. From 6 to 11 days after the inoculation, the number of lesions was examined, and the controlling rate was calculated by comparison with the non-treated cases. The results are shown in Table 5.

[3] = 10 mm/hr artificial rainfall for 1 hour a day after treatment, read-out: Controlling rate of cucumber powdery mildew (%) Rainfall
[4] = no rainfall treatment (preventive), read-out: Controlling rate of cucumber powdery mildew (%) Preventive

CCOc1cc(C(=O)c2c(OC)ncc(Cl)c2Cl)c(C)cc1OC [1-4, 3-(5-ethoxy-4-methoxy-2-methylbenzoyl)-4,5-dichloro-2-methoxypyridine]
pest or weed control at 125 ppm (cucumber powdery mildew [1]): ≥ 90% | pest or weed control at 125 ppm (wheat powdery mildew): ≥ 90%

CCOc1ncc(Cl)c(C)c1C(=O)c1c(C)cc(OC)c(OC)c1OC [1-6, 3-(2,3,4-trimethoxy-6-methylbenzoyl)-5-chloro-2-ethoxy-4-methylpyridine]
pest or weed control at 125 ppm (wheat powdery mildew): ≥ 90%

COc1cc(C)c(C(=O)c2c(OC)ccnc2OC)c(OC)c1OC [2-5, 3-(2,3,4-trimethoxy-6-methylbenzoyl)-2,4-dimethoxypyridine, reference compound]
pest or weed control at 125 ppm (wheat powdery mildew): ≥ 90% | pest or weed control at 500 g/ha (cucumber powdery mildew [2]; [3]): 0% | pest or weed control at 500 g/ha (cucumber powdery mildew [2]; [4]): 95%

COc1cc(C)c(C(=O)c2c(OC)ncc(Br)c2Br)c(OC)c1OC [1-12, 3-(2,3,4-trimethoxy-6-methylbenzoyl)-4,5-dibromo-2-methoxypyridine]
pest or weed control at 125 ppm (cucumber powdery mildew [1]): ≥ 90% | pest or weed control at 125 ppm (wheat powdery mildew): ≥ 90% | pest or weed control at 500 g/ha (cucumber powdery mildew [2]; [3]): 68% | pest or weed control at 500 g/ha (cucumber powdery mildew [2]; [4]): 100%

CCOc1ncc(C)c(C)c1C(=O)c1c(C)cc(OC)c(OC)c1OCC [1-21, 3-(2-ethoxy-3,4-dimethoxy-6-methylbenzoyl)-2-ethoxy-4,5-dimethylpyridine]
pest or weed control at 125 ppm (cucumber powdery mildew [1]): ≥ 90% | pest or weed control at 125 ppm (wheat powdery mildew): ≥ 90%

COc1cc(C)c(C(=O)c2c(OC)ncc(Br)c2C)c(OC)c1OC [1-36, 3-(2,3,4-trimethoxy-6-methylbenzoyl)-5-bromo-2-methoxy-4-methylpyridine]
pest or weed control at 125 ppm (cucumber powdery mildew [1]): ≥ 90% | pest or weed control at 125 ppm (wheat powdery mildew): ≥ 90%

COc1cc(C)c(C(=O)c2c(OC)ncc(Cl)c2SC)c(OC)c1OC [1-10, 3-(2,3,4-trimethoxy-6-methylbenzoyl)-5-chloro-2-methoxy-4-methylthiopyridine]
pest or weed control at 125 ppm (cucumber powdery mildew [1]): ≥ 90% | pest or weed control at 125 ppm (wheat powdery mildew): ≥ 90%

COc1cc(C)c(C(=O)c2c(OC)cnc(C)c2C(F)(F)F)c(OC)c1OC [2-2, 4-(2,3,4-trimethoxy-6-methylbenzoyl)-3-trifluoromethyl-5-methoxy-2-methylpyridine, reference compound]
pest or weed control at 125 ppm (cucumber powdery mildew [1]): ≥ 90% | pest or weed control at 125 ppm (wheat powdery mildew): ≥ 90% | pest or weed control at 500 g/ha (cucumber powdery mildew [2]; [3]): 35% | pest or weed control at 500 g/ha (cucumber powdery mildew [2]; [4]): 100%

CCOc1ncc(Br)c(Cl)c1C(=O)c1c(C)cc(OC)c(OC)c1OC [1-7, 3-(2,3,4-trimethoxy-6-methylbenzoyl)-5-bromo-4-chloro-2-ethoxypyridine]
pest or weed control at 125 ppm (cucumber powdery mildew [1]): ≥ 90% | pest or weed control at 125 ppm (wheat powdery mildew): ≥ 90%

COc1cc(C)c(C(=O)c2c(OC)ncc(Br)c2C(F)(F)F)c(OC)c1OC [1-14, 3-(2,3,4-trimethoxy-6-methylbenzoyl)-5-bromo-4-trifluoromethyl-2-methoxypyridine]
pest or weed control at 125 ppm (cucumber powdery mildew [1]): ≥ 90% | pest or weed control at 125 ppm (wheat powdery mildew): ≥ 90% | pest or weed control at 500 g/ha (cucumber powdery mildew [2]; [3]): 100% | pest or weed control at 500 g/ha (cucumber powdery mildew [2]; [4]): 100%

COc1cc(C)c(C(=O)c2c(OC)ncc(C)c2C(F)(F)F)c(OC)c1OC [Compound No. 1-37, 3-(2,3,4-trimethoxy-6-methylbenzoyl)-4-trifluoromethyl-2-methoxy-5-methylpyridine]
pest or weed control at 125 ppm (cucumber powdery mildew [1]): ≥ 90% | pest or weed control at 125 ppm (wheat powdery mildew): ≥ 90% | pest or weed control at 500 g/ha (cucumber powdery mildew [2]; [3]): 100% | pest or weed control at 500 g/ha (cucumber powdery mildew [2]; [4]): 100%

COc1cc(C)c(C(=O)c2c(OC)cnc(C)c2Cl)c(OC)c1OC [2-4, 4-(2,3,4-trimethoxy-6-methylbenzoyl)-3-chloro-5-methoxy-2-methylpyridine, reference compound]
pest or weed control at 125 ppm (wheat powdery mildew): ≥ 90% | pest or weed control at 500 g/ha (cucumber powdery mildew [2]; [3]): 35% | pest or weed control at 500 g/ha (cucumber powdery mildew [2]; [4]): 92.5%

COc1cc(C)c(C(=O)c2c(OC)ncc(C)c2Br)c(OC)c1OC [1-13, 3-(2,3,4-trimethoxy-6-methylbenzoyl)-4-bromo-2-methoxy-5-methylpyridine]
pest or weed control at 125 ppm (cucumber powdery mildew [1]): ≥ 90% | pest or weed control at 125 ppm (wheat powdery mildew): ≥ 90%

CCOc1ncc(Cl)c(Br)c1C(=O)c1c(C)cc(OC)c(OC)c1OC [1-5, 3-(2,3,4-trimethoxy-6-methylbenzoyl)-4-bromo-5-chloro-2-ethoxypyridine]
pest or weed control at 125 ppm (cucumber powdery mildew [1]): ≥ 90% | pest or weed control at 125 ppm (wheat powdery mildew): ≥ 90%
